Data: article PMC2223489, “Influence of single and multiple doses of amifostine on the efficacy and the pharmacokinetics of carboplatin in mice” (British Journal of Cancer, 1997)

Assays:
[1] = Pharmacokinetics of total platinum in OVCAR-3-bearing nude mice (flameless AAS); assay type: in vivo; details: 0.5-24 h, carboplatin 60 mg kg-1 i.v. alone or + single dose amifostine 200 mg kg-1 i.p.
Description: (§1) British Joumal of Cancer (1997) 75(10), 1439-1446 ? […] The present study was carried out in well-established human ovarian cancer xenografts OVCAR-3, A2780 and FMa grown subcutaneously in the nude mouse. […] Its anti-tumour activity is assumed to result from the formation of platinum (Pt)-DNA adducts. The clinical use of carboplatin is limited by myelosuppression at a dose in the steep part of the dose-response curve. Therefore, much effort has been put into reducing the toxic side-effects to allow the administration of higher doses of carboplatin. Amifostine [Ethyol, WR-2721, S-2-(3-aminopropylamino)- ethylphosphorothioic acid], initially developed as a radioprotector, is approved for use as a protector against chemotherapy-induced toxicities in the USA and Europe (van der Vijgh and Peters, 1994). […] Such an approach is incorporated into clinical trials in which amifostine is given three times, just before and 2 and 4 h after carboplatin (Betticher et al, 1995; Vermorken et al, 1995). To date, clinical data are available for only a small number of patients. The Amifostine H2N - (CH2)3 - NH - (CH2)2 - S - P03H2 41 alkaline phosphatase WR-1 065 H2N - (CH2)3 - NH - (CH2)2 - S - H 4, oxidation Disulphides H2N - (CH2)3 - NH - (CH2)2 - S - S - R Figure 1 Structural formulas of amifostine, its active metabolite WR-1 065 and the disulphides [with WR-1 065 itself or with endogenous thiols (RSH)] […] However, the influence of multiple doses of amifostine on the anti-tumour activity of carboplatin was not studied. In the present experiments we investigated the influence of multiple doses of amifostine on the efficacy of carboplatin in tumour-bearing nude mice. We also investigated the influence of one and three doses of amifostine on the pharmacokinetics of carboplatin and the formation of Pt-DNA adducts in order to inter- pret the efficacy of carboplatin in the presence of amifostine. Furthermore, we determined the influence of a single dose and multiple doses of amifostine on the body temperature in nude mice.

DNA = assay: Pt-DNA adduct levels in tissues of OVCAR-3-bearing nude mice (competitive ELISA); assay type: in vivo; details: carboplatin 60 mg kg-1 alone or plus one dose of amifostine
Description: as §1

[2] = Body temperature (intrarectal) in non-tumour-bearing nude mice; assay type: in vivo; details: carboplatin 60 mg kg-1 alone; in the 24 h following injection
Description: British Joumal of Cancer (1997) 75(10), 1439-1446 ? […] The present study was carried out in well-established human ovarian cancer xenografts OVCAR-3, A2780 and FMa grown subcutaneously in the nude mouse. […] Its anti-tumour activity is assumed to result from the formation of platinum (Pt)-DNA adducts. The clinical use of carboplatin is limited by myelosuppression at a dose in the steep part of the dose-response curve. Therefore, much effort has been put into reducing the toxic side-effects to allow the administration of higher doses of carboplatin. Amifostine [Ethyol, WR-2721, S-2-(3-aminopropylamino)- ethylphosphorothioic acid], initially developed as a radioprotector, is approved for use as a protector against chemotherapy-induced toxicities in the USA and Europe (van der Vijgh and Peters, 1994). […] Such an approach is incorporated into clinical trials in which amifostine is given three times, just before and 2 and 4 h after carboplatin (Betticher et al, 1995; Vermorken et al, 1995). To date, clinical data are available for only a small number of patients. […] Furthermore, we determined the influence of a single dose and multiple doses of amifostine on the body temperature in nude mice.

[3] = parameters: method as in Treskes et al, 1994; details: given on days 0 and 7; allowing 10% weight loss within 2 weeks after the first injection; ref Treskes et al, 1994; cited from earlier work
[4] = test system: human ovarian cancer xenograft FMa; assay: Anti-tumour activity in s.c. FMa xenografts in nude mice; assay type: in vivo; details: for Anti-tumour activity (in words): carboplatin at the MTD of 60 mg kg-1, amifostine given three times; for Growth inhibition (%) (Day): weekly x 2
Description: as §1

[5] = Toxicity (weight loss, toxic deaths) in xenograft-bearing nude mice; assay type: in vivo, female athymic nude mice; details: weekly x 2
Description: as §1

[6] = test system: human ovarian cancer xenograft OVCAR-3; assay: Anti-tumour activity in s.c. OVCAR-3 xenografts in nude mice; assay type: in vivo; details: for Growth inhibition (%) (Day): weekly x 2; for Anti-tumour activity (in words): OVCAR-3, carboplatin at the MTD of 60 mg kg-1, amifostine given three times
Description: as §1

[7] = test system: human ovarian cancer xenograft A2780; assay: Anti-tumour activity in s.c. A2780 xenografts in nude mice; assay type: in vivo; details: for Growth inhibition (%) (Day): Table 1, carboplatin 60 mg kg-1 i.v. and/or amifostine 3 x 200 mg kg-1 i.p., weekly x 2; for Anti-tumour activity (in words): A2780, carboplatin at the MTD of 60 mg kg-1, amifostine given three times
Description: as §1

[8] = day 29, Table 1, carboplatin 60 mg kg-1 i.v. and/or amifostine 3 x 200 mg kg-1 i.p.
[9] = day 36, Table 1, carboplatin 60 mg kg-1 i.v. and/or amifostine 3 x 200 mg kg-1 i.p.
[10] = A2780-bearing mice, Table 1, carboplatin 60 mg kg-1 i.v. and/or amifostine 3 x 200 mg kg-1 i.p.
[11] = FMa-bearing mice, Table 1, carboplatin 60 mg kg-1 i.v. and/or amifostine 3 x 200 mg kg-1 i.p.
[12] = OVCAR-3-bearing mice, Table 1, carboplatin 60 mg kg-1 i.v. and/or amifostine 3 x 200 mg kg-1 i.p.
[13] = OVCAR-3, day 28, Table 1, carboplatin 60 mg kg-1 i.v. and/or amifostine 3 x 200 mg kg-1 i.p.
[14] = OVCAR-3, day 35, Table 1, carboplatin 60 mg kg-1 i.v. and/or amifostine 3 x 200 mg kg-1 i.p.

Compound	Anti-tumour activity (in words) [4]	Growth inhibition (%) (Day) [4, 8]	Growth inhibition (%) (Day) [4, 9]	Toxic deaths [5, 10]	Toxic deaths [5, 11]	Toxic deaths [5, 12]	Growth inhibition (%) (Day) [6, 13]	Growth inhibition (%) (Day) [6, 14]	Anti-tumour activity (in words) [6]	Growth inhibition (%) (Day) ([7]; A2780, day 11)	Growth inhibition (%) (Day) ([7]; A2780, day 14)	Anti-tumour activity (in words) [7]	further results
N.N.O=C([O-])C1(C(=O)[O-])CCC1.[Pt+2] [carboplatin, cis-diammine( 1,1 -cyclobutanedicarboxylato)plat- inum(II)]	active	90.3	89.3	0/5	0/6	0/5	93.2	89.0	active	28.8	14.0	no significant influence	AUC of total platinum in OVCAR-3 tumour tissue [1]: 146.8 nmol g(-1) x h; AUC of total platinum in kidney [1]: 368.3 nmol g(-1) x h; AUC of total platinum in liver [1]: 236.4 nmol g(-1) x h; AUC of total platinum in plasma ultrafiltrate [1]: 18.2 microM x h; Ratio AUC Pt-DNA adducts/AUC total platinum, kidney (DNA): 0.51; Ratio AUC Pt-DNA adducts/AUC total platinum, liver (DNA): 0.23; Ratio AUC Pt-DNA adducts/AUC total platinum, tumour tissue (DNA): 0.56; Body temperature (not decreased) [2]: 37 0C; Maximum tolerated dose (MTD) of carboplatin [3]: 60 mg kg-'; Growth inhibition (%) (Day) ([4]; day 21, Table 2, carboplatin 60 mg kg-1 i.v. alone or + amifostine 1 x 200 mg kg-1 i.p.): 79.2%; Growth inhibition (%) (Day) ([4]; day 28, Table 2, carboplatin 60 mg kg-1 i.v. alone or + amifostine 1 x 200 mg kg-1 i.p.): 76.0%; Toxic deaths ([5]; FMa-bearing mice, Table 2, carboplatin 60 mg kg-1 i.v. alone or + amifostine 1 x 200 mg kg-1 i.p.): 0/6; Toxic deaths ([5]; OVCAR-3-bearing mice, Table 2, carboplatin 60 mg kg-1 i.v. alone or + amifostine 1 x 200 mg kg-1 i.p.): 0/6; Growth inhibition (%) (Day) ([6]; OVCAR-3, day 20, Table 2, carboplatin 60 mg kg-1 i.v. alone or + amifostine 1 x 200 mg kg-1 i.p.): 88.5%; Growth inhibition (%) (Day) ([6]; OVCAR-3, day 27, Table 2, carboplatin 60 mg kg-1 i.v. alone or + amifostine 1 x 200 mg kg-1 i.p.): 92.4%
NCCCNCCSP(=O)(O)O [amifostine, S-2-(3-aminopropylamino)-ethylphosphorothioic acid]	did not have any anti-tumour activity	20.3	21.5	2/6	0/6	1/6	0.0	0.0	did not have any anti-tumour activity	31.1	17.4	did not have any anti-tumour activity	
